Laboratory results from patent US20260335277A1, “CHLOROTONIL DERIVATIVES” (priority 2023, published 2026).
≈ marks a conversion by molar mass, not a printed value. Read-outs that look alike come from different tables or passages of the source.

Experiments:
[1] = test system: E. faecium DSM-20477; test: MIC testing (broth microdilution, EUCAST); type: cell-based; conditions: for MIC: Enterococcus faecium, DSM20477, E. faecium DSM-20477; for MIC E. faecium: E. faecium DSM-20477
Description: (§1) Minimal inhibitory concentration (MIC) of the compounds in the present invention was determined using broth microdilution performed according to EUCAST guidelines (ISO20776-1:2019). S. aureus ATCC29213 and E. faecalis ATCC29212 served as quality control strains.

[2] = test system: E. faecalis ATCC-29212; test: MIC testing (broth microdilution, EUCAST); type: cell-based; conditions: for MIC: Enterococcus faecalis, ATCC29212, E. faecalis ATCC-29212; for MIC E. faecalis: E. faecalis ATCC-29212
Description: as §1

[3] = test system: E. faecium DSM-17050 (vancomycin-resistant, VRE); test: MIC testing (broth microdilution, EUCAST); type: cell-based; conditions: for MIC: Enterococcus faecium
Description: as §1

[4] = test system: S. aureus N315 (methicillin-resistant, MRSA); test: MIC testing (broth microdilution, EUCAST); type: cell-based; conditions: for MIC: Staphylococcus aureus, MRSA
Description: as §1

[5] = test system: S. epidermidis DSM-28765; test: MIC testing (broth microdilution, EUCAST); type: cell-based; conditions: for MIC: Staphylococcus epidermidis, DSM28765, S. epidermidis DSM-28765, read-out: MIC S. epiderm.; for MIC S. epiderm.: S. epidermidis DSM-28765
Description: as §1

[6] = test system: S. aureus Newman; test: MIC testing (broth microdilution, EUCAST); type: cell-based; conditions: for MIC: Staphylococcus aureus, NEWMAN
Description: as §1

[7] = test system: zebrafish larvae; test: Toxicity in zebrafish larvae (MTC / IC50); type: in vivo; conditions: for IC50 in zebrafish larvae: exposed 3 days post fertilization, monitored 48 h; for Selectivity Index S. aureus: zebrafish IC50 / MIC S. aureus Newman; for Selectivity Index P. falc 3D7: zebrafish IC50 vs P. falciparum 3D7
Description: (§2) For toxicity screening, zebrafish larvae were exposed three days post fertilization and monitored for 48 h until five days post fertilization. All malformations and pathophysiological phenotypes were noted and used to determine the inhibitory concentration (IC50) of the respective derivative against zebrafish larvae. The selectivity index (SI) was then calculated using the IC50 and the MIC of either S. aureus or P. falciparum 3D7.

[8] = Toxicity in zebrafish larvae (MTC / IC50); type: in vivo; conditions: zebrafish, zebrafish larvae
Description: as §2

[9] = test system: E. faecium; test: MIC 50/90 profiling in multidrug-resistant clinical isolates; type: cell-based; conditions: Enterococcus faecium; for MIC: read-out: MIC range; for MIC50 / MIC90: E. faecium (n = 98)
Description: as §1
(§3) Activity of dehalogenil against multidrug-resistant clinical isolates of S. aureus (n=100) and Enterococcus spp. […] Compared to the standard of care (linezolid, daptomycin and tigecyclin), dehalogenil MIC90 was lowered in both pathogens by 20-40-fold with unimodal distribution indicating no pre-existing resistances.

[10] = test system: clinical isolates of S. aureus; test: as above; type: cell-based; conditions: Staphylococcus aureus; S. aureus clinical isolates (n = 100)
Description: as §1, §3

[11] = test system: mature gametocytes (stages IV and V); test: Activity against mature gametocytes (stage IV-V), bioluminescence assay; type: cell-based, P. falciparum
Description: Activity against gametocytes was determined using an in vitro bioluminescence assay as described previously (doi.org/10.1371/journal.pone.0035019).

[12] = cited from earlier work
[13] = test system: S. aureus USA300LAC; test: S. aureus blood infection (sepsis) model; type: in vivo, mouse (CD-1); conditions: 60 mg/kg
Description: Dehalogenil was further tested in a Staphylococcus blood infection (sepsis) model, alongside linezolid as reference compound. Mice were infected using S. aureus USA300LAC (10^8 CFU/animal) and subsequently treated with a daily total of 5, 10 or 25 mg/kg SC dehalogenil, split into two doses (8 h interval, BID regimen) until 3 days post infection.
Mice were infected intravenously using S. aureus USA300LAC (10^8 CFU/mice). Compounds were administered twice daily starting day 0 until day 3, with the daily total dose indicated. Curves were compared via Mantel-Cox test (Prism), with ***: p<0.001 and **: p<0.01.

[14] = zebrafish IC50 / MIC S. aureus Newman, read-out: Selectivity Index S. aureus
[15] = zebrafish IC50 vs P. falciparum 3D7, read-out: Selectivity Index P. falc 3D7

SMILES | MIC [2] [µg/mL] | MIC E. faecium [1] [µg/mL] | MIC E. faecalis [2] [µg/mL] | MIC VRE [3] [µg/mL] | MIC MRSA [4] [µg/mL] | MIC S. epiderm. [5] [µg/mL] | MIC S. aureus [6] [µg/mL] | IC50 in zebrafish larvae [7] [nM] | also measured
CC1=C[C@@H](C)[C@H]2[C@@H]3C(=O)[C@@](F)(Cl)C(=O)[C@H](C)C(=O)O[C@@H](C)/C=C/C=C\[C@@H](C)[C@@H]3C=C[C@@H]2C1 [ChA-4′F] | 1.6 (≈ 3.46 µM) | – | – | – | – | – | – | – | MIC [1]: 0.8 µg/mL (≈ 1.73 µM); MIC [3]: 1.6 µg/mL (≈ 3.46 µM); MIC [4]: 1.6 µg/mL (≈ 3.46 µM); MIC [5]: > 6.4 µg/mL; MIC [6]: 0.8 µg/mL (≈ 1.73 µM)
CC1=C[C@@H](C)[C@H]2[C@@H]3C(=O)[C@@](C)(Cl)C(=O)[C@H](C)C(=O)O[C@@H](C)/C=C/C=C\[C@@H](C)[C@@H]3C=C[C@@H]2C1 [ChA-4′Me] | 1.6 (≈ 3.49 µM) | – | – | – | – | – | – | – | MIC [1]: 0.8 µg/mL (≈ 1.74 µM); MIC [3]: 0.8 µg/mL (≈ 1.74 µM); MIC [4]: 1.6 µg/mL (≈ 3.49 µM); MIC [5]: > 1.6 µg/mL; MIC [6]: 1.6 µg/mL (≈ 3.49 µM)
C=C1C[C@H]2C=C[C@@H]3[C@@H](C(=O)C(Cl)(Cl)C(=O)[C@H](C)C(=O)O[C@@H](C)/C=C/C=C\[C@H]3C)[C@@H]2[C@H](C)C1Cl (stereo partly shown) [ChA-9′Cl] | 0.4 (≈ 0.778 µM) | – | – | – | – | – | – | – | MIC [1]: 0.2 µg/mL (≈ 0.389 µM); MIC [3]: 0.2 µg/mL (≈ 0.389 µM); MIC [4]: 0.4 µg/mL (≈ 0.778 µM); MIC [5]: 0.4 µg/mL (≈ 0.778 µM); MIC [6]: 0.4 µg/mL (≈ 0.778 µM)
CC1=CC(C)C2C(C=CC3C(C)C=CC=CC(C)OC(=O)C(C)C(=O)C(Cl)=C(O)C32)C1 (stereo not shown) [ChB1, reference compound] | – | 0.1 (≈ 0.225 µM) | 0.2 (≈ 0.449 µM) | 0.1 (≈ 0.225 µM) | 0.8 (≈ 1.8 µM) | 0.4 (≈ 0.899 µM) | 0.2 (≈ 0.449 µM) | – | –
CC1=CC(C)C2C(C=CC3C(C)C=CC=CC(C)OC(=O)CC(=O)C(Cl)=C(O)C32)C1 (stereo not shown) [ChB1-2′DM, 2′Demethylchlorotonil] | – | 0.4 (≈ 0.928 µM) | 0.4 (≈ 0.928 µM) | 0.4 (≈ 0.928 µM) | 0.4 (≈ 0.928 µM) | 1.6 (≈ 3.71 µM) | 0.4 (≈ 0.928 µM) | 33240 | Selectivity Index S. aureus [7]: 35.8
CC1=CC(C)C2C(C=CC3C(C)C=CC=CC(C)OC(=O)C(C)(C)C(=O)C(Cl)=C(O)C32)C1 (stereo not shown) [ChB1-2′Me] | – | 0.2 (≈ 0.436 µM) | 0.8 (≈ 1.74 µM) | 0.4 (≈ 0.871 µM) | 0.8 (≈ 1.74 µM) | 0.8 (≈ 1.74 µM) | 0.4 (≈ 0.871 µM) | 12310 | Selectivity Index S. aureus [7]: 14.1; Selectivity Index P. falc 3D7 [7]: 114.0
CC1=C[C@@H](C)[C@H]2[C@@H]3C(=O)C(Cl)=C([O-])[C@H](C)C(=O)O[C@@H](C)/C=C/C=C\[C@@H](C)[C@@H]3C=C[C@@H]2C1.CC1=C[C@@H](C)[C@H]2[C@@H]3C(=O)C(Cl)=C([O-])[C@H](C)C(=O)O[C@@H](C)/C=C/C=C\[C@@H](C)[C@@H]3C=C[C@@H]2C1.CC1=C[C@@H](C)[C@H]2[C@@H]3C(=O)C(Cl)=C([O-])[C@H](C)C(=O)O[C@@H](C)/C=C/C=C\[C@@H](C)[C@@H]3C=C[C@@H]2C1.[Mg+2].[Na+] [ChB2, reference compound] | – | 0.4 | 1.6 | 0.8 | >3.2 | 3.2 | 3.2 | – | –
CC1C=CC=CC(C)C2C=CC3CC4(C)OC4C(C)C3C2C(=O)CC(=O)C(C)C(=O)O1 (stereo not shown) [Dehalogenil-Epo1] | 3.2 (≈ 7.5 µM) | 3.2 (≈ 7.5 µM) | – | 3.2 (≈ 7.5 µM) | 3.2 (≈ 7.5 µM) | 3.2 (≈ 7.5 µM) | 3.2 (≈ 7.5 µM) | 9850 | selectivity ratio [8, 14]: 1.31; selectivity ratio [8, 15]: 4.9
CC1C=CC=CC(C)C2C=CC3CC4(C)OC4C(C)C3C2C(=O)CC(=O)C(C)C(=O)O1 (stereo not shown) [Dehalogenil-Epo2] | – | 0.8 (≈ 1.88 µM) | 1.6 (≈ 3.75 µM) | 0.4 (≈ 0.938 µM) | 0.2 (≈ 0.469 µM) | 0.8 (≈ 1.88 µM) | 0.4 (≈ 0.938 µM) | 1220 | Selectivity Index S. aureus [7]: 1.30; Selectivity Index P. falc 3D7 [7]: 6.2
CCCCCCCCCC(=O)N[C@@H](Cc1c[nH]c2ccccc12)C(=O)N[C@H](CC(N)=O)C(=O)N[C@@H](CC(=O)O)C(=O)N[C@@H]1C(=O)NCC(=O)N[C@@H](CCCN)C(=O)N[C@@H](CC(=O)O)C(=O)N[C@H](C)C(=O)N[C@@H](CC(=O)O)C(=O)NCC(=O)N[C@H](CO)C(=O)N[C@@H]([C@H](C)CC(=O)O)C(=O)N[C@@H](CC(=O)c2ccccc2N)C(=O)O[C@@H]1C [daptomycin] | – | – | – | – | – | – | – | – | MIC [9]: 0.5 to 4 µg/mL (≈ 0.309 to 2.47 µM); MIC50 [9]: 2 µg/mL (≈ 1.23 µM); MIC90 [9]: 4 µg/mL (≈ 2.47 µM); MIC50 [10]: 0.5 µg/mL (≈ 0.309 µM); MIC90 [10]: 4 µg/mL (≈ 2.47 µM)
CC1=CC(C)C2C(C=CC3C(C)C=CC=CC(C)OC(=O)CC(=O)CC(=O)C32)C1 (stereo not shown) [dehalogenil-2′DM, 2′Demethyldehalogenil] | 1.6 (≈ 4.04 µM) | – | – | – | – | – | – | 27030 | IC50 ([11]; Plasmodium falciparum): 499 ± 86.8 nM; selectivity ratio [8, 14]: 13.4; selectivity ratio [8, 15]: 66.2; MIC [1]: 0.8 µg/mL (≈ 2.02 µM); MIC [3]: 0.8 µg/mL (≈ 2.02 µM); MIC [4]: 0.8 µg/mL (≈ 2.02 µM); MIC [5]: 3.2 µg/mL (≈ 8.07 µM); MIC [6]: 0.8 µg/mL (≈ 2.02 µM)
CC1=CC(C)C2C(C=CC3C(C)C=CC=CC(C)OC(=O)C(C)C(=O)CC(=O)C32)C1 (stereo not drawn) [dehalogenil-2′Epi] | – | 0.05 (≈ 0.122 µM) | 0.2 (≈ 0.487 µM) | 0.1 (≈ 0.244 µM) | 0.1 (≈ 0.244 µM) | 0.4 (≈ 0.974 µM) | 0.2 (≈ 0.487 µM) | 38460 | IC50 [11]: 25.2 ± 1.63 nM; selectivity ratio [8, 14]: 78.9; selectivity ratio [8, 15]: 1370
CC[C@H](C)[C@H](NC(=O)[C@H]([C@@H](C)CC)N(C)C(C)=O)C(=O)N[C@H](C(=O)N[C@@H](CC(C)C)C(=O)[C@@]1(C)CO1)[C@@H](C)O [epoxomicin] | – | – | – | – | – | – | – | – | toxic effects in vivo [12]: shows toxic effects in vivo
CC(=O)NC[C@H]1CN(c2ccc(N3CCOCC3)c(F)c2)C(=O)O1 [linezolid] | – | – | – | – | – | – | – | – | survival [13]: survival of all animals; MIC [9]: 0.5 to 64 µg/mL (≈ 1.48 to 190 µM); MIC50 [9]: 4 µg/mL (≈ 11.9 µM); MIC90 [9]: 4 µg/mL (≈ 11.9 µM); MIC50 [10]: 4 µg/mL (≈ 11.9 µM); MIC90 [10]: 8 µg/mL (≈ 23.7 µM)
CC1=C[C@@H](C)[C@H]2[C@@H]3C(O)=C(SS)C(=O)[C@H](C)C(=O)O[C@@H](C)/C=C/C=C\[C@@H](C)[C@@H]3C=C[C@@H]2C1 [thiotonil] | – | 0.025 (≈ 0.0527 µM) | 0.2 (≈ 0.421 µM) | 0.025 (≈ 0.0527 µM) | 0.4 (≈ 0.843 µM) | 0.4 (≈ 0.843 µM) | 0.4 (≈ 0.843 µM) | – | IC50 [11]: 67.4 ± 8.6 nM; Selectivity Index S. aureus [7]: >62.5; Selectivity Index P. falc 3D7 [7]: >892.9
CN(C)c1cc(NC(=O)CNC(C)(C)C)c(O)c2c1C[C@H]1C[C@H]3[C@H](N(C)C)C(=O)C(C(N)=O)=C(O)[C@@]3(O)C(=O)C1=C2O [tigecyclin] | – | – | – | – | – | – | – | – | MIC [9]: 0.5 to 16 µg/mL (≈ 0.854 to 27.3 µM); MIC50 [9]: 2 µg/mL (≈ 3.41 µM); MIC90 [9]: 2 µg/mL (≈ 3.41 µM); MIC [10]: 1 to 16 µg/mL (≈ 1.71 to 27.3 µM); MIC50 [10]: 4 µg/mL (≈ 6.83 µM); MIC90 [10]: 8 µg/mL (≈ 13.7 µM)
